The target in one assay is T1, BRD4 BD1 (Homo sapiens, UniProt O60885).
T1 construct: made in house
Nature of the assay: AlphaScreen binding assay, BRD4 Bromodomain 1. The procedure, abridged:
(§1)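 An AlphaScreen competition format was used with His-BRD4 BD1 or BD2 and biotin-H4 K5/8/12/16-acetyl peptide, each at matched final levels of 50 nM (BD1) or 100 nM (BD2). Incubation in HEPES/NaCl buffer with 0.1% BSA and 0.01% Triton X-100 ran ≥1 h before IC50 determination.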

A further assay addresses T2, BRD4 BD2 (Homo sapiens, UniProt O60885).
T2 construct: made in house
Nature of the assay: AlphaScreen binding assay, BRD4 Bromodomain 2. The method, boiled down:
as §1

For the next assay, the system named is MV4-11 cells. Put plainly: Oncology cell growth assay (3-day proliferation, CellTiter-Glo). The note with it: Homo sapiens, MV4-11, 72 h, AML cell line MV4-11, 72 hours, compounds grouped by IC50 range, read-out: MV4-11 IC50 (inhibition of proliferation, gIC50). The format is cell-based. The procedure, abridged: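 Compounds were serially diluted 3-fold in DMSO, giving final well concentrations from 10 down to 0.0045 μM. MV4-11 cells were then seeded at 3000 cells/well in RPMI 1640 with 10% FBS and incubated 72 hours. CellTiter-Glo signal was measured and gIC50 obtained by four-parameter logistic regression.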

Drawing on patent publication US10703764B2, “Benzopiperazine compositions as BET bromodomain inhibitors” (FORMA Therapeutics, Inc., priority 2013, dated 2020), this text covers IC50 for 40 molecules.

`CC(=O)N1c2ccc(-c3ccc4c(c3)N(C)S(=O)(=O)N4)cc2N(C(=O)C2CCC2)C[C@@H]1C` [Example I-1176]: the IC50 was 100 to 1000 nM on BRD4 BD1, < 50 nM at BRD4 BD2 and > 500 nM with MV4-11 cells.
The matching figures for `CC(=O)N1c2ccc(-c3ccc4c(c3)N(C)S(=O)(=O)N4)cc2N(C(=O)OC(C)C)C[C@@H]1C` [Example I-1177]: 100 to 1000 nM, 50 to 500 nM and > 500 nM.
The matching figures for `CC(=O)N1c2ccc(-c3ccc4c(c3)CS(=O)(=O)N4)cc2N(C(=O)C2CC2)C[C@@H]1C` [Example I-1178]: 100 to 1000 nM, 50 to 500 nM and > 500 nM.
For `CC(=O)N1c2ccc(-c3ccc4c(c3)CS(=O)(=O)N4)cc2N(C(=O)OC(C)C)C[C@@H]1C` [Example I-1179], the figures for the IC50 on BRD4 BD1, at BRD4 BD2 and in the assay on MV4-11 cells were 100 to 1000 nM, 50 to 500 nM and 100 to 500 nM, respectively.
For the molecule `CC(=O)N1c2ccc(-c3ccc(NS(C)(=O)=O)c(F)c3)cc2N(C(=O)C2CC2)C[C@@H]1C` [Example I-1180], the IC50 was 100 to 1000 nM on BRD4 BD1, 50 to 500 nM at BRD4 BD2 and > 500 nM in the assay on MV4-11 cells.
The corresponding values for `CC(=O)N1c2ccc(-c3ccc(NS(C)(=O)=O)c(F)c3)cc2N(C(=O)C2CCC2)C[C@@H]1C` [Example I-1181] are 1000 to 10000 nM, 50 to 500 nM and > 500 nM.
The matching figures for `CCOC(=O)N1C[C@H](C)N(C(C)=O)c2ccc(-c3ccc(NS(C)(=O)=O)c(F)c3)cc21` [Example I-1182]: 100 to 1000 nM, 50 to 500 nM and > 500 nM.
The corresponding values for `CC(=O)N1c2ccc(-c3ccc(NS(C)(=O)=O)c(F)c3)cc2N(C(=O)OC(C)C)C[C@@H]1C` [Example I-1183] are 100 to 1000 nM, < 50 nM and 100 to 500 nM.
`CC(=O)N1c2ccc(-c3ccc4c(c3)N(S(C)(=O)=O)CCC4)cc2N(C(=O)C2CC2)C[C@@H]1C` [Example I-1184]: the IC50 lay in the range of 100 to 1000 nM at BRD4 BD1, 50 to 500 nM on BRD4 BD2 and 100 to 500 nM with MV4-11 cells.
The matching figures for `CC(=O)N1c2ccc(-c3ccc4c(c3)N(S(C)(=O)=O)CCC4)cc2N(C(=O)OC(C)C)C[C@@H]1C` [Example I-1185]: 100 to 1000 nM, 50 to 500 nM and 100 to 500 nM.
The matching figures for `COc1cc(F)ccc1OC(=O)N1C[C@H](C)N(C(C)=O)c2ccc(-c3cnn(C4CC4)c3)cc21` [Example I-1186]: 100 to 1000 nM, < 50 nM and 100 to 500 nM.
The corresponding values for `CC(=O)N1c2ccc(-c3cnn(C4CC4)c3)cc2N(C(=O)Oc2cncc(Cl)c2)C[C@@H]1C` [Example I-1187] are 100 to 1000 nM, < 50 nM and > 500 nM.
With `CC(=O)N1c2ccc(-c3cnn(C4CC4)c3)cc2N(C(=O)Oc2cncc(F)c2)C[C@@H]1C` [Example I-1189], the IC50 lay in the range of 100 to 1000 nM on BRD4 BD1, 50 to 500 nM on BRD4 BD2 and 100 to 500 nM in the assay with MV4-11 cells.
The matching figures for `CC(=O)N1c2ccc(-c3cnn(C4CC4)c3)cc2N(C(=O)Oc2ccc(C)nc2C)C[C@@H]1C` [Example I-1190]: 100 to 1000 nM, 50 to 500 nM and > 500 nM.
On to `CC(=O)N1c2ccc(-c3cnn(C4CC4)c3)cc2N(C(=O)Oc2cccc3ncccc23)C[C@@H]1C` [Example I-1191], for which the results for the IC50 at BRD4 BD1, at BRD4 BD2 and with MV4-11 cells were 100 to 1000 nM, < 50 nM and 100 to 500 nM, respectively.
The matching figures for `CC(=O)N1c2ccc(-c3cnn(C4CC4)c3)cc2N(C(=O)Oc2ccc3cnccc3c2)C[C@@H]1C` [Example I-1192]: 100 to 1000 nM, < 50 nM and < 100 nM.
The matching figures for `CC(=O)N1c2ccc(-c3cnn(C4CC4)c3)cc2N(C(=O)Oc2ccc(-n3cncn3)cc2)C[C@@H]1C` [Example I-1194]: 100 to 1000 nM, 50 to 500 nM and 100 to 500 nM.
The matching figures for `CC(=O)N1c2ccc(-c3cnn(C4CC4)c3)cc2N(C(=O)Oc2cccc3cccnc23)C[C@@H]1C` [Example I-1195]: 100 to 1000 nM, < 50 nM and < 100 nM.
For the molecule `CC(=O)N1c2ccc(-c3cnn(C4CC4)c3)cc2N(C(=O)Oc2ccc(Cl)c3cccnc23)C[C@@H]1C` [Example I-1196], the IC50 was in the range of 100 to 1000 nM at BRD4 BD1, 50 to 500 nM on BRD4 BD2 and 100 to 500 nM in the assay with MV4-11 cells.
The matching figures for `CC(=O)N1c2ccc(-c3cnn(C4CC4)c3)cc2N(C(=O)Oc2cc(C)ccc2F)C[C@@H]1C` [Example I-1198]: 100 to 1000 nM, 50 to 500 nM and 100 to 500 nM.
As to `COc1ccc(OC(=O)N2C[C@H](C)N(C(C)=O)c3ccc(-c4cnn(C5CC5)c4)cc32)cn1` [Example I-1199], the IC50 at BRD4 BD1 lay within 100 to 1000 nM; on BRD4 BD2 it was 50 to 500 nM; in the assay on MV4-11 cells, 100 to 500 nM.
`COc1ccc(F)cc1OC(=O)N1C[C@H](C)N(C(C)=O)c2ccc(-c3cnn(C4CC4)c3)cc21` [Example I-1201]: the IC50 on BRD4 BD1 was 100 to 1000 nM; on BRD4 BD2, < 50 nM; in the assay on MV4-11 cells, 100 to 500 nM.
Turning to `CC(=O)N1c2ccc(-c3cnn(C4CC4)c3)cc2N(C(=O)Oc2ccc3cccnc3c2)C[C@@H]1C` [Example I-1202], the IC50 at BRD4 BD1 was 100 to 1000 nM; at BRD4 BD2 it was 50 to 500 nM; with MV4-11 cells it was 100 to 500 nM.
The matching figures for `CC(=O)N1c2ccc(-c3cnn(C4CC4)c3)cc2N(C(=O)Oc2cccc3nccnc23)C[C@@H]1C` [Example I-1204]: 100 to 1000 nM, < 50 nM and < 100 nM.
The corresponding values for `CC(=O)N1c2ccc(-c3cnn(C4CC4)c3)cc2N(C(=O)Oc2ccc3c(c2)ncn3C)C[C@@H]1C` [Example I-1205] are 100 to 1000 nM, < 50 nM and 100 to 500 nM.
For the molecule `CC(=O)N1c2ccc(-c3cnn(C4CC4)c3)cc2N(C(=O)Oc2ccc3ccncc3c2)C[C@@H]1C` [Example I-1206], the IC50 was 100 to 1000 nM at BRD4 BD1, < 50 nM at BRD4 BD2 and 100 to 500 nM with MV4-11 cells.
For the molecule `COc1ncc(Cl)cc1OC(=O)N1C[C@H](C)N(C(C)=O)c2ccc(-c3cnn(C4CC4)c3)cc21` [Example I-1207], the results for the IC50 on BRD4 BD1, on BRD4 BD2 and with MV4-11 cells were 100 to 1000 nM, 50 to 500 nM and > 500 nM, respectively.
The corresponding values for `CC(=O)N1c2ccc(-c3cnn(CCO)c3)cc2N(C(=O)N(C)C(C)C)C[C@@H]1C` [Example I-1211] are > 10000 nM, 50 to 500 nM and > 500 nM.
The matching figures for `CC(=O)N1c2ccc(-c3cnn(CCO)c3)cc2N(C(=O)N(C)c2ccccc2)C[C@@H]1C` [Example I-1212]: > 10000 nM, > 500 nM and > 500 nM.
The matching figures for `CCS(=O)(=O)c1ccc(-c2ccc3c(c2)N(C(=O)OC2CCOCC2)C[C@H](C)N3C(C)=O)cc1` [Example I-1214]: 100 to 1000 nM, 50 to 500 nM and 100 to 500 nM.
On to `CC(=O)N1c2ccc(-c3ccc(S(=O)(=O)C4CC4)cc3)cc2N(C(=O)OC2CCCCC2)C[C@@H]1C` [Example I-1215], for which the values for the IC50 on BRD4 BD1, at BRD4 BD2 and in the assay on MV4-11 cells were 100 to 1000 nM, 50 to 500 nM and 100 to 500 nM, respectively.
The matching figures for `CC(=O)N1c2ccc(-c3ccc(S(=O)(=O)C4CC4)cc3)cc2N(C(=O)OC2CCOCC2)C[C@@H]1C` [Example I-1216]: 100 to 1000 nM, 50 to 500 nM and 100 to 500 nM.
On to `CC(=O)N1c2ccc(-c3ccc(S(=O)(=O)NCCO)cc3)cc2N(C(=O)OC2CCCCC2)C[C@@H]1C` [Example I-1217], for which the IC50 at BRD4 BD1 was 100 to 1000 nM; on BRD4 BD2 it was < 50 nM; with MV4-11 cells it was < 100 nM.
As to `CC(=O)N1c2ccc(-c3ccc(S(=O)(=O)NCCO)cc3)cc2N(C(=O)OC2CCOCC2)C[C@@H]1C` [Example I-1218], the IC50 at BRD4 BD1 was 100 to 1000 nM; at BRD4 BD2 it was 50 to 500 nM; in the assay with MV4-11 cells it was 100 to 500 nM.
Take `CC(=O)N1c2ccc(-c3cccc(S(N)(=O)=O)c3)cc2N(C(=O)OC2CCCCC2)C[C@@H]1C` [Example I-1219]: the IC50 on BRD4 BD1 was 100 to 1000 nM; on BRD4 BD2 it was < 50 nM; with MV4-11 cells, < 100 nM.
`CC(=O)N1c2ccc(-c3cccc(S(N)(=O)=O)c3)cc2N(C(=O)OC2CCOCC2)C[C@@H]1C` [Example I-1220]: the IC50 is 100 to 1000 nM at BRD4 BD1, 50 to 500 nM on BRD4 BD2 and 100 to 500 nM with MV4-11 cells.
The corresponding values for `CC(=O)N1c2ccc(-c3cccc(NS(C)(=O)=O)c3)cc2N(C(=O)OC2CCCCC2)C[C@@H]1C` [Example I-1221] are 100 to 1000 nM, 50 to 500 nM and 100 to 500 nM.
In the case of `CC(=O)N1c2ccc(-c3cccc(NS(C)(=O)=O)c3)cc2N(C(=O)OC2CCOCC2)C[C@@H]1C` [Example I-1222], the IC50 is 100 to 1000 nM on BRD4 BD1, 50 to 500 nM at BRD4 BD2 and 100 to 500 nM in the assay with MV4-11 cells.
The matching figures for `CC(=O)N1c2ccc(-c3cccc(S(=O)(=O)N(C)C)c3)cc2N(C(=O)OC2CCCCC2)C[C@@H]1C` [Example I-1223]: 100 to 1000 nM, 50 to 500 nM and 100 to 500 nM.
The matching figures for `CC(=O)N1c2ccc(-c3cccc(S(=O)(=O)N(C)C)c3)cc2N(C(=O)OC2CCOCC2)C[C@@H]1C` [Example I-1224]: 100 to 1000 nM, 50 to 500 nM and 100 to 500 nM.
